Laboratory results from patent US6492530B1, “Amorphous form of cell cycle inhibitor having improved solubility and bioavailability” (Hoffmann-La Roche Inc., priority 2000, dated 2002).
Entries after “also recorded” stand apart in the source; their conditions may differ.

What was measured:
[1] = Bioavailability / pharmacokinetics in beagle dogs after single oral dose; assay type: in vivo
Description: Additionally, preparations containing crystalline compound of formula I (Examples IIIB and IIIC) and amorphous compound of formula I (Example IIA) were evaluated for bioavailability in beagle dogs with body weight of approximately 10 kg. Each dog was given a formulation containing 90 mg of compound of formula I. Blood samples were collected from each dog prior to dosing (0 h) and at 0.5, 1, 2, 4, 6, 8, 12, 24, 36 and 48 hours after dosing. EDTA was used as an anticoagulant. Each plasma sample was separated after cold centrifugation and frozen in an amber vial at a minimum of −60° C. before analysis. Compound of formula I was extracted from plasma and the plasma concentration of compound of formula I was determined using a positive ion TurbolonSpray LC-MS/MS assay[HPLC using HP1100 LC system, Hewleft-Packard, Inc. (Agilent Technologies, Wilmington, Del.) and Mass Spectrometer using PE-Sciex API-3+ (Perkin-Elmer Instruments, Wilton, Conn.), Ionization mode: Turbulonspray, 500C, positive ion] The calibration range was 1 to 1,000 ng/mL using a 100-μL plasma sample. […]

[2] = Two-stage dissolution method (water, then 6% SLS in phosphate buffer pH 6.8); assay type: physicochemical; details: FIG. 6 dissolution profile, Example IIA versus Example IIIA
Description: The formulation of Example IIIA containing crystalline compound of formula I (Example IIIA) and the formulation of (Example IIA) containing amorphous compound of formula I were evaluated for dissolution by a two-stage (two dissolution media) dissolution method. At Stage I, 300 mL of deionized water at 37°±0.5° C. using paddles at 75 rpm was used. At Stage II, 600 mL of 6% w/v Sodium Lauryl Sulfate in 0.015M Phosphate Buffer, pH 6.8 equilibrated at 37°±0.5° C., was carefully added into the dissolution vessel 25 minutes after the Stage I dissolution was initiated. Sample aliquots were taken at different time intervals and analyzed by UV spectrophotometry.

[3] = Stability of the amorphous form under accelerated storage (powder X-ray diffraction); assay type: physicochemical; details: 40° C./75% RH, closed glass vial for 6 months, independent of form stabilizers; FIG. 5
[4] = physchem; details: aqueous media at physiological pHs, aqueous buffer
Excerpt: A crystalline form of the compound of formula I is known. See, e.g., U.S. Pat. No. Re. 36,736. […] (Id. column 22, lines 5-6). […] See, e.g. U.S. Pat. No. 6,048,887 and EP 0 988,863.

SMILES	bioavailability as compared to the crystalline form ([1]; amorphous versus crystalline form)	solubility versus crystalline form [2]	retention of amorphous form on storage [3]	solubility [4]	bioavailability ([1]; dog, in vivo, in dogs, previously known crystalline form (background statement))
Cn1cc(C2=C(c3cn(C)c4cc([N+](=O)[O-])ccc34)C(=O)NC2=O)c2ccccc21 [amorphous compound of formula I, 3-(1-methyl-3-indolyl)-4-(1-methyl-6-nitro-3-indolyl)-1H-pyrrole-2,5,-dione]	approximately 15 fold	much more soluble	maintained its amorphous properties; also recorded: remained in its amorphous form		
Cn1cc(C2=C(c3cn(C)c4cc([N+](=O)[O-])ccc34)C(=O)NC2=O)c2ccccc21 [crystalline compound of formula I, 3-(1-methyl-3-indolyl)-4-(1-methyl-6-nitro-3-indolyl)-1H-pyrrole-2,5,-dione, reference compound]				< 0.01 mg/mL	< 5%
